Counter-ions that a name gives are not always drawn.
Key:
[1] = system: serotonin (5-HT) uptake, rat midbrain synaptosomes; assay: Inhibition of 3H-5-HT uptake in rat midbrain synaptosomes in vitro; type: biochemical; conditions: rat midbrain-diencephalon synaptosomes; 5-HT 2.5×10^-9 M; 10 minutes
Description: The inhibition of serotonin (5-HT) uptake indicative of potential antidepressant activity is determined in rat midbrain synaptosomes in vitro as follows:
Synaptosomes from the rat midbrain-diencephalon region are prepared and the uptake of ^3 H-5-HT measured as described by Baumann and Maitre, Naunyn-Schmiedeberg's Arch. Pharmacol. 300, 31 (1977). The concentration of 5-HT in the incubation medium is 2.5×10^-9 M, and the incubation period is 10 minutes. The concentration of a compound of this invention required to inhibit serotonin uptake by 50%, i.e. the IC50, is determined.

[2] = system: norepinephrine (NE) uptake, rat midbrain synaptosomes; assay: Inhibition of 3H-NE uptake in rat midbrain synaptosomes in vitro; type: biochemical; conditions: rat midbrain-diencephalon synaptosomes; NE 1×10^-8 M; 20 minutes
Description: The inhibition of norepinephrine (NE) uptake is determined in rat midbrain synaptosomes in vitro as follows:
Synaptosomes from the rat midbrain-diencephalon region are prepared and the uptake of ^3 H-NE is measured as described by Baumann and Maitre, Naunyn-Schmiedeberg's Arch. Pharmacol. 300, 31 (1977). The concenrtration of NE in the incubation medium is 1×10^-8 M, and the incubation period is 20 minutes. The concentration required to inhibit norepinephrine uptake by 50%, i.e. the IC50, is determined.

serotonin (5-HT) uptake = assay: Serotonin (5-HT) uptake inhibition in rats pretreated with compounds; type: in vivo, rat
Description: Serotonin (5-HT) uptake inhibition is also determined in rats pretreated with compounds of the instant invention.

[3] = system: reserpine treated rabbits; assay: Reversal of reserpine-induced ptosis in the rabbit; type: in vivo; conditions: reserpine 2 mg/kg i.v. 90 minutes before i.v. infusion of 0.2% drug solution
Description: The serotonin uptake inhibiting or serotonin activating properties of the compounds of the invention are indicative of antidepressant properties as determined by the reversal of reserpine-induced ptosis (i.e. […]) in the rabbit. Rabbits are injected intravenously with 2 mg/kg reserpine 90 minutes before the i.v. infusion of 0.2% drug solution into the ear vein according to the method of J. Mizoule et al. (J. Pharmacol., 8, 3, 269-285, 1977). The complete opening of the eye-lids is taken as a criterion for reversal of the reserpine-induced ptosis. The results are expressed in terms of the mean dose of test compound inducing complete opening of the eye-lids in reserpine treated rabbits.

serotonin uptake = assay: H 75/12 test: inhibition of the serotonin depleting effect of H 75/12 in rat brain; type: in vivo; conditions: for ED50: oral, 30 minutes before H 75/12 (25 mg/kg s.c.), 4 hours
Description: The inhibition of the serotonin depleting effect of 3-hydroxy-4-methyl-α-ethylphenethylamine (H 75/12) in rat brain serves as an indirect indication of serotonin uptake inhibitory activity. (Carlsson, Corrodi, Fuxe and Hoekfelt, Europ. J. Pharmacol. 5, 357, 1969). A diminution of serotonin release by H 75/12 is considered to be due to a serotonin uptake inhibitory effect of the test compound. The compound to be tested is administered orally 30 minutes before H 75/12 (25 mg/kg s.c.) and the animals are decapitated 4 hours thereafter. The brains are immdiately taken out and serotonin is determined as described above. The ED50 represents the dose of the test compound inhibiting the serotonin-depleting effect of H75/12 by 50%.

[4] = system: serotonin (5-HT) uptake, rat whole brain synaptosomes; assay: Inhibition of tritiated serotonin uptake into synaptosomes from rat whole brain in vitro; type: biochemical; conditions: for IC50: rat whole brain synaptosomes, 3H-5-HT about 1×10^-7 M, 5 min preincubation, 4 min incubation
Description: (§1) Compounds of the previous examples are tested for their ability to block the uptake of tritiated serotonin into synaptosomal nerve endings from rat whole brain in vitro essentially by the method of Thornburg and Moore as described in Res. Comm. Chem. Pathol. Pharmacol. 5, 81 (1973). The preincubation period of the test compound (added in ethanol solution) with the whole brain synaptosome suspension in Krebs buffer is 5 minutes. The incubation period, following the addition of tritiated serotonin (^3 H-5-HT) to a final concentration of about 1×10^-7 M, is 4 minutes. The concentration of test agent required to inhibit serotonin uptake by 50% of control value i.e. the IC50, is determined graphically and expressed in micromolar concentration.

[5] = system: norepinephrine (NE) uptake, rat whole brain synaptosomes; assay: Inhibition of tritiated norepinephrine uptake into synaptosomes from rat whole brain in vitro; type: biochemical; conditions: 3H-NE
Description: as §1
The concentration of test agent required to inhibit norepinephrine (NE) uptake by 50% of the control value, i.e., the IC50 is similarly determined using tritiated norepinephrine (^3 H-NE) and is also expressed in micromolar concentration.

CN(C)CC(COc1ccc(C(F)(F)F)cc1)Cc1ccccc1.O=C(O)C(=O)O (centres unmarked) [Example 1, N,N-dimethyl-2-benzyl-3-(4-trifluoromethylphenoxy)propylamine oxalate]
IC50 [1]: ~0.015 µM
IC50 [2]: ~3 µM
inhibition of 3H-5HT uptake (serotonin (5-HT) uptake; 30 mg/kg p.o.): ~60%
mean dose inducing complete opening of the eye-lids [3]: ~12.6 mg/kg i.v.
ED50 (serotonin uptake): ~4.5 mg/kg
IC50 [4]: 0.49 µM
IC50 [5]: 15.2 µM

Cc1cccc(OCC(Cc2ccccc2)CN(C)C)c1 (centres unmarked) [3/8]
IC50 [4]: 1.25 µM
IC50 [5]: 3.25 µM

CNCC(COc1ccc(OC)cc1)Cc1ccccc1 (centres unmarked) [6/1]
IC50 [4]: 0.44 µM
IC50 [5]: 1.25 µM

CSc1ccc(OCC(Cc2cccc(Cl)c2)CN(C)C)cc1.O=C(O)C(=O)O (centres unmarked) [Example 2, N,N-dimethyl-2-(3-chlorobenzyl)-3-(4-methylmercaptophenoxy)propylamine oxalate]
ED50 (serotonin uptake): ~1.4 mg/kg
IC50 [4]: 0.03 µM
IC50 [5]: 5 µM

Cc1ccc(OCC(Cc2ccccc2)CN(C)C)cc1 (centres unmarked) [3/7]
IC50 [4]: 1.22 µM
IC50 [5]: 12.5 µM

CSc1ccc(OCC(Cc2ccc(Cl)cc2)CN(C)C)cc1 (centres unmarked) [3/14]
IC50 [4]: 0.67 µM
IC50 [5]: 7.1 µM

CNCC(COc1ccccc1OC)Cc1ccccc1 (centres unmarked) [Example 8, N-methyl-2-benzyl-3-(2-methoxyphenoxy)propylamine oxalate]
IC50 [4]: 5.4 µM
IC50 [5]: 8.9 µM

COc1cccc(OCC(Cc2ccccc2)CN(C)C)c1 (centres unmarked) [3/1]
IC50 [4]: 0.43 µM
IC50 [5]: 4.3 µM

CCN(CC)CC(COc1ccccc1)Cc1ccccc1.Cl (centres unmarked) [Example 16, N,N-diethyl-2-benzyl-3-phenoxypropylamine hydrochloride, reference compound]
IC50 [1]: 2.2 µM
IC50 [2]: 2 µM
inhibition of the serotonin-depleting effect of H 75/12 (serotonin uptake; 30 mg/Kg p.o.): 17%
in vivo serotonin uptake inhibitory activity (serotonin uptake; 30 mg/Kg p.o., in words): no significant in vivo serotonin uptake inhibitory activity
selectivity (serotonin vs norepinephrine uptake) in in vitro tests ([4]; in vitro, whole brain and midbrain synaptosomes, in words): no selectivity is seen in in vitro tests
IC50 [4]: 7.3 µM
IC50 [5]: 3.3 µM

CN(C)CC(COc1cccc(C(F)(F)F)c1)Cc1ccccc1 (centres unmarked) [3/10]
IC50 [4]: 2.25 µM
IC50 [5]: 6.9 µM

COc1cccc(SCC(Cc2ccccc2)CN(C)C)c1 (centres unmarked) [3/11]
IC50 [4]: 1.95 µM
IC50 [5]: 7.6 µM

CN(C)CC(COc1ccc(Cl)cc1)Cc1ccccc1 (centres unmarked) [3/4]
IC50 [4]: 1.49 µM
IC50 [5]: 12 µM

CN(C)CC(COc1ccccc1Cl)Cc1ccccc1 (centres unmarked) [3/3]
IC50 [4]: 1.3 µM
IC50 [5]: 5.3 µM

CNCC(COc1ccc(SC)cc1)Cc1ccccc1 (centres unmarked) [6/2, N-methyl-2-benzyl-3-(4-methylthiophenoxy)propylamine]
IC50 [4]: 0.14 µM
IC50 [5]: 2.5 µM

CN(C)CC(COc1ccc(C(F)(F)F)cc1)Cc1cccc(Cl)c1 (centres unmarked) [3/15]
IC50 [4]: 6 µM
IC50 [5]: 32 µM

CN(C)CC(COc1cccc(Cl)c1)Cc1ccccc1 (centres unmarked) [3/6]
IC50 [4]: 2.7 µM
IC50 [5]: 16.1 µM

COc1cc(OC)cc(OCC(Cc2ccccc2)CN(C)C)c1 (centres unmarked) [3/12]
IC50 [4]: 1.52 µM
IC50 [5]: 4.3 µM

CNCC(COc1ccc(SC)cc1)Cc1cccc(Cl)c1 (centres unmarked) [6/3]
IC50 [4]: 2.7 µM
IC50 [5]: 11 µM

COc1ccc(OCC(Cc2ccccc2)CN2CCCCC2)cc1 (centres unmarked) [3/5]
IC50 [4]: 6.1 µM
IC50 [5]: 39.5 µM

COc1ccc(OCC(Cc2ccccc2)CN(C)C)cc1 (centres unmarked) [3/16]
IC50 [4]: 0.56 µM
IC50 [5]: 0.57 µM

CNCC(COc1cccc(OC)c1)Cc1ccccc1 (centres unmarked) [Example 5, N-methyl-2-benzyl-3-(3-methoxyphenoxy)propylamine oxalate]
IC50 [4]: 0.94 µM
IC50 [5]: 1.39 µM

CNCC(COc1ccc(C(F)(F)F)cc1)Cc1ccccc1.O=C(O)C(=O)O (centres unmarked) [N-methyl-2-benzyl-3-(4-trifluoromethylphenoxy)-propylamine oxalate]
IC50 [1]: ~0.01 µM
IC50 [2]: ~2 µM
inhibition of 3H-5HT uptake (serotonin (5-HT) uptake; 10 mg/kg p.o.): ~50%
mean dose inducing complete opening of the eye-lids [3]: ~12.9 mg/kg i.v.
ED50 (serotonin uptake): ~1.8 mg/kg

COc1ccc(SCC(Cc2ccccc2)CN(C)C)cc1 (centres unmarked) [3/9]
IC50 [4]: 1.53 µM
IC50 [5]: 8.1 µM

CNCC(COc1ccc(C(F)(F)F)cc1)Cc1ccccc1 (centres unmarked) [Example 4, N-methyl-2-benzyl-3-(4-trifluoromethylphenoxy)propylamine hydrochloride]
IC50 [4]: 0.39 µM
IC50 [5]: 12.6 µM

C=CCOc1cccc(OCC(Cc2ccccc2)CN(C)C)c1 (centres unmarked) [3/13]
IC50 [4]: 0.59 µM
IC50 [5]: 1.44 µM

CSc1ccc(OCC(Cc2ccccc2)CN(C)C)cc1.O=C(O)C(=O)O (centres unmarked) [3/2, N,N-dimethyl-2-benzyl-3-(4-methylmercaptophenoxy)-propylamine oxalate]
IC50 [1]: ~0.03 µM
IC50 [2]: ~0.5 µM
inhibition of 3H-5HT uptake (serotonin (5-HT) uptake; 30 mg/kg p.o.): about 80%
mean dose inducing complete opening of the eye-lids [3]: about 7.7 mg/kg i.v.
ED50 (serotonin uptake): ~2.3 mg/kg
IC50 [4]: 0.27 µM
IC50 [5]: 10.8 µM

— patent US4824868A, “Propylamine derivatives useful for the treatment of dementia” (Ciba-Geigy Corporation, priority 1987, dated 1989)
